Where two headings read alike, the source gives them in different places. No end group written: not given here. *: point of attachment. Biotin = O=C1N[C@H]2[C@H](CS[C@H]2CCCCC(=O)*)N1; Ttds = NCCCOCCOCCOCCCNC(=O)CCC(=O)*
How the values were obtained:
[1] = tested on: MRSA strain 326
[2] = molecular target: T1, β-Gal (Escherichia coli, UniProt P00722); conditions: 10 μM peptide and 10 μM β-Gal; 20 mM sodium phosphate buffer, pH 6.8
Protocol: The co-aggregation of Tango 1 peptide, Tango 2 peptide and a tandem repeat of Tango 2 peptide with 13-Gal in vitro were monitored via light scattering from the apparent change in the optical density (OD) at 340 nm due to growth of aggregate particulates at room temperature. The interferor-β-Gal co-aggregation was initiated by adding equimolar molar concentration (10 μM) of either Tango 1 peptide, either Tango 2 peptide, either tandem repeat of Tango 2 peptide and β-Gal in 20 mM sodium phosphate buffer, pH 6.8 followed by gently stirring the sample at 50 rpm.
To characterise the size of the aggregates the hydrodynamic radius (RH) of β-Gal at time zero and after co-incubation with the either Tango 1 peptide, either Tango 2 peptide, either tandem repeat of Tango 2 peptide (Table 14) for 2 h was measured using dynamic light scattering (DLS), DynaPro DLS (Wyatt Technology Europe, Germany).

[3] = tested on: PR8 virus; type: cell-based, influenza A virus (H1N1 strain)
[4] = molecular target: T2, human EGFR2 (Homo sapiens, UniProt P04626); assay: EGF-induced ERK1/2 phosphorylation in HeLa cells (ELISA); type: cell-based; conditions: EGF 25 ng/ml
T2 construct: these cells endogenously express EGFR1 and EGFR2; endogenous in cells; host or cells: HeLa
Protocol: The EGFR2 peptides are designed to target the human EGFR2 receptor. Thus, for these assays, HeLa cells were initially used, as these cells endogenously express EGFR1 and EGFR2.
For EGFR2, a similar screen was performed as for VEGFR2. Instead of using the time-consuming Western Blot method, however, an ELISA protocol was used that can detect both phospho- and total ERK1/2.

[5] = tested on: human erythrocytes; type: cell-based
Text: The detergent Tween was used as a positive control, causing 100% lysis of RBCs.

[6] = tested on: Corynebacterium
Protocol: (§1) Bacteria were grown in a shaking incubator at 37° C. and 160rpm in 50 ml BHI , using individual colonies retrieved from a fresh overnight TSA-sheep blood plate. The cultures were grown to a density of approximately 1×10^8cells/ml and then diluted to 5×10^5 cells/ml in CAMHB (Mc Farland 0.5). Each well contained 100p.I (50p.I of peptide containing MHB plus 50 μl inoculum). The final cell density was 1×10^5 to 5×10^5/ml. After addition of the cell suspension, plates were incubated at 37° C. for 18 to 24 hours. The optical density at 590 nm (OD590) of each well was measured after 5 seconds of shaking the plate using Perkin Elmer spectrophotometer (1420 Multilabel Counter Vicotr 3). […] Each well, where no growth was observed, was also plated on TSA-sheep blood agar plates, incubated at 37° C. overnight and visually inspected.
(§2) A microbroth dilution method was used with twofold serial dilutions in CAMHB (according to EMEA guidelines) was used for screening of peptide activity, with concentrations ranging from 0.3 μg/mIto 200 μg/ml.

[7] = tested on: B. cereus
Protocol: as §1, §2

[8] = tested on: S. aureus
[9] = tested on: Human embryonic kidney (HEK293T) cells; conditions: 50 μg/ml (C30: 50 μg/ml or beyond)
[10] = tested on: human embryonic kidney cells (HEK293T cell line); conditions: 100 μg/ml; 24 hours incubation
Text: Alamar blue assay allowed monitoring of the total percentage of cell growth recovery in time in the presence of peptides.

[11] = molecular target: T3, PSA (Homo sapiens, UniProt P07288); assay: PepBlot detection of PSA in human seminal plasma; type: binding; conditions: 10% seminal plasma; for detection of PSA compared with monoclonal antibody: 250 nM peptide
T3 construct: A sample of 10% seminal plasma was fractionated under non-reducing condition using denaturing gel electrophoresis; from tissue; host or cells: human seminal plasma
T3 sequence (P07288 25-261): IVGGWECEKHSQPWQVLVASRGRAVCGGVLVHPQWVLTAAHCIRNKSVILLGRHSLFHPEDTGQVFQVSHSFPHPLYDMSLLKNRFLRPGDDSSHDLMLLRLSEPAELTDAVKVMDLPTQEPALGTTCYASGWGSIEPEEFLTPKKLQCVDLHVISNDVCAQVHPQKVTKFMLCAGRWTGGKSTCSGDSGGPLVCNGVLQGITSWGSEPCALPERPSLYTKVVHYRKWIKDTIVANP
Protocol: Semen from a volunteer was collected and allowed to liquefy at room temperature. After 2 h the seminal fluid was centrifuged at 10,000×g for 15 min to separate the plasma from sperm cells. A sample of 10% seminal plasma was fractionated under non-reducing condition using denaturing gel electrophoresis then transferred to PVDF membrane and blocked using protocol described for serum electrophoresis. Lanes of membrane were agitated separately with 250 nM of peptide b^˜[…] (SEQ ID NO: 88) or peptide b^˜[…] (SEQ ID NO: 85) or 250 pM tandem repeat peptide b^˜[…] (SEQ ID NO: 89) formulated in 10 mM MES buffer pH 5.1, 100 mM trehalose, 0.05% Tween 20 and 2.5% DMSO at 25° C. for 1 h. The membranes were rinsed in 10 mM MES buffer pH 5.1, 0.05% tween 20 and stained with HRP-conjugated SRP and visualized with ECL system. In parallel WB detection of PSA in seminal plasma was carried out by incubating the membrane with (1:5000) rabbit monoclonal anti-PSA antibody (EP1588Yi Abcam) specific to the c-terminal peptide of PSA. This was followed by staining with goat polyclonal anti-rabbit antibody conjugated to HRP and visualised using ECL system.

[12] = tested on: EGFR family; assay: EGF-induced ERK1/2 phosphorylation in HeLa cells (cross reactivity of VEGFR2 peptides); type: cell-based, human; conditions: EGF 25 ng/ml
Protocol: As a next step, to test the specificity of the VEGFR2 peptides, we tested their cross reactivity towards the EGFR family. Therefore, HeLa cells were treated with peptide B8 and B12 and subsequently stimulated with EGF (25ng/ml).

[13] = molecular target: T1, β-Gal; conditions: for binding to β-Gal on blot: 250 nM biotinylated peptide, 1 h, complete BL21 cell lysate
Protocol: A 0.4 ml suspension of BL21 cells (OD600 nm ^˜1.2) expressing β-Gal (grown under induced conditions) was centrifuged at 5000 g for 10 min at room temperature. The supernatant was discarded and 0.8 ml of bacterial protein extraction reagent (B-PER, Thermo scientific) containing protease inhibitor was added to the bacterial pellet and vortex mixed for 30 s in order to lyse the cells. To 21 μl of the complete BL21 cell lysate 5 μl of 5× SDS sample loading buffer (Fermentas) was added and heated at 99° C. for 3 min. This mixture (26 μl per well) was loaded in a 10-well NuPage 4-12% Bis-Tris gel and the proteins were separated under denaturing conditions. The separated proteins were then transferred to a nitrocellulose membrane and blocked overnight with 1% BSA in phosphate buffer saline, 0.05% Tween 20, pH 7.4 (PBS-T) at 4° C. Each lane of the membrane was cut out and separately incubated with either rabbit anti-β-Gal antibody either biotinylated Tango 1, either biotinylated Tango 2, or the biotinylated off-target peptide or either a biotinylated Tango 2 mutant peptide.
This was followed by 3×10 min wash with PBS-T and finally rinsed in deionised water for 10 min. The membrane strip was exposed to chemiluminescence HRP substrate reagent (SuperSignal West Femto Maximum Sensitivity Substrate, Thermo Fisher Scientific) and target protein visualized using Bio-Rad ChemiDoc XRS imaging system.
A stock solution (10 μM) of each of the biotinylated peptides was prepared in 100% DMSO. The peptide stock was diluted (1/400) in 10 mM MES buffer, 100 mM Trehalose, 0.05% Tween 20, pH 5.5 to obtain a final concentration of the peptide of 25 nM. The freshly prepared peptide solution was immediately added to the membrane strip and gently agitated at room temperature. After 15 min the peptide solution was decanted and the membrane strip was washed 3×10 min with 10 mM MES buffer, 0.05% Tween 20, pH 5.5 and further processed as described herein before.

[14] = tested on: S. aureus; type: cell-based, Staphylococcus aureus; conditions: S. aureus clinical strain MRSA 204; passaged at half the MIC over 15 days
[15] = tested on: S. aureus MRSA 326; assay: Neutropenic-mouse thigh model; conditions: neutropenic mice; bolus i.v. dose of 15 mg/kg 2 h after inoculation; sacrificed 4 hours post-infection
[16] = molecular target: T1, β-Gal; conditions: 1 μM peptide; immobilized β-Gal
Protocol: In this in vitro experiment the affinity of different interferor peptides was measured for binding to β-gal by means of surface plasmon resonance (SPR). SPR experiments were performed at 25° C. using a Biacore T100 equipped with CM5 sensor chip (GE Healthcare.). Coupling reagents (N-ethyl-N′-(3-dimethylaminopropyl)carbodiimide (EDC), N-hydroxysuccinimide (NHS) and ethanolamine-HCI) were purchased from GE Healthcare. BSA and β-gal were purchased from Sigma-Aldrich and Roche Diagnostics, respectively. […] The proteins BSA and β-Gal were immobilized respectively, in the reference and sample channels on a CM5 sensor chip by standard amine coupling chemistry at a flow of 10 μl min^−1. The carboxymethyl dextran surface was activated by the injection of a 1:1 ratio of EDC and NHS for 7 minutes. The proteins were diluted in 10 mM sodium-acetate buffer, pH 4.5 to a final concentration of 0.2 mg m1^−1 and injected in short pulses over the activated surface until the immobilization levels reached 4000 RU or 8000 RU, for BSA and β-Gal, respectively. The remaining reactive groups were blocked with 1 M ethanolamine, pH 8. After completion of coupling, the surface was regenerated with short pulses of 50 mM NaOH and 8 M urea to remove non-covalently attached proteins. […] The peptides, dissolved in the running buffer (10 mM sodium phosphate, pH 6.8, 150 mM NaCI, 3 mM EDTA and 0.015% Tween 20) at a concentration of 1 μM, were injected for 60 s at a flow rate of 30 μl min^−1 and then allowed to dissociate for 600 s. The injection was repeated on the same surface as well as on independently immobilized surfaces. The surface was regenerated between each cycle by 30 s pulses of i) 50 mM NaOH, and ii) 8 M urea, and was allowed to stabilize for 400 s before the next cycle.
The peptide dissolved in the running buffer was injected for 60 s at a flow-rate of 301.11min′ over the reference (BSA) and sample (β-Gal) surfaces in a range of concentrations (0-4 μM, with one internal replicate) and were then allowed to dissociate for 600 s. The concentration series were repeated on the same surface (three times) as well as on independently immobilized surfaces. The surface was regenerated between each cycle by 30 s pulses of i) 50 mM NaOH, and ii) 8 M urea, and was allowed to stabilize for 400 s before the next cycle.
The data were globally fitted to a three-state model, using the Biacore T100 software, assuming an initial encounter between the peptide in solution and the protein on the chip followed by a two-step rearrangement before an identical binding site becomes available at the growing β-sheet.

T1 sequence (P00722 2-1024 with the stated changes limits assumed): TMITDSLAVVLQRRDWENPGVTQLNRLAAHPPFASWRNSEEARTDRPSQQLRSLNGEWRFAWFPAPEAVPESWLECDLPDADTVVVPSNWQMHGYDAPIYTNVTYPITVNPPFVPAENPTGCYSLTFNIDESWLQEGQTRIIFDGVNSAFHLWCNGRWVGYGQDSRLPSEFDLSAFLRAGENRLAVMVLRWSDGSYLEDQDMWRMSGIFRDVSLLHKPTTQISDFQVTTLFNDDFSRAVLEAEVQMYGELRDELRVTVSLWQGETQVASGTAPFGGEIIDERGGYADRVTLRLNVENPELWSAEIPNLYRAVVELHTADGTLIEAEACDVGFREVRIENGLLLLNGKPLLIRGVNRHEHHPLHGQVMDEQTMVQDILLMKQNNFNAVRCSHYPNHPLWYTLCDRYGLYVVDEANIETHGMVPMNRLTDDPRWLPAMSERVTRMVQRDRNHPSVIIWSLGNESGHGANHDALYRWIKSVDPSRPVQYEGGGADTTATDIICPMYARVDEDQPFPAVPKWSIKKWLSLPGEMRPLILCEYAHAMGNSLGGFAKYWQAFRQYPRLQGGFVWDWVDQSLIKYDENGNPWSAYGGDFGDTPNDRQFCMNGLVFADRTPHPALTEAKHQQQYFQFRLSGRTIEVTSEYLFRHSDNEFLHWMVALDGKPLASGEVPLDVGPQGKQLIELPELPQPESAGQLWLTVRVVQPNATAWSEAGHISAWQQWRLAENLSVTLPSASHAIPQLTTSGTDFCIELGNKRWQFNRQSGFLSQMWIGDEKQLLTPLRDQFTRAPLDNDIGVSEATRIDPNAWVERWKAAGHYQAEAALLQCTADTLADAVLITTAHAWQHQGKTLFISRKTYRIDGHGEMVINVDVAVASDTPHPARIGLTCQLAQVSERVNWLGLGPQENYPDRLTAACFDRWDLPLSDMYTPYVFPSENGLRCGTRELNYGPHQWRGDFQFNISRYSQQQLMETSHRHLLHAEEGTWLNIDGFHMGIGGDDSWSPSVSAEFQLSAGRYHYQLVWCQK

## CC1(C)S[C@@H]2[C@H](NC(=O)[C@H](N)c3ccccc3)C(=O)N2[C@H]1C(=O)O [Ampicilin, reference compound]
[1]; 31 days, concentration in medium adjusted to MIC of previous day
  maximal increase of the MIC: up to 7 fold
[1]; day 31
  MIC on the last day of the experiment: 100 µg/mL

## (His)6~RVIIWSLGNRGSGSAPAARVIIWSLGNR [Tandem of Tango 2]
[2]
  co-aggregation kinetics with free β-Gal in solution: fast co-aggregation kinetics

## O Z RLIQLIVSRGSRLIQLIVSR [interferor 1]
[3]
  virus replication: still reproducibly inhibit virus replication

## RTGYLYISRPPRTGYLYISR [A11]
[4]
  EGF signaling (phospho-ERK1/2): significantly and repeatedly reduced EGF signaling

## RWGLLLALRPPRWGLLLALR [A5]
[4]
  EGF signaling (phospho-ERK1/2): significantly and repeatedly reduced EGF signaling

## O Z RGVSILNLRGSRGVSILNLR [interferor 4]
[3]
  virus replication: still reproducibly inhibit virus replication

## RFFIALSRRGSRVQAYLYRR [Hit50]
[5]
  hemolytic activity: no significant hemolytic activity at clinically relevant concentrations
[6]
  MIC values against Corynebacterium: 12.5 µg/mL
[7]
  MIC values against B.cereus ATCC: >100 µg/mL
[8]
  MIC: 25 µg/mL
  MIC in presence of 50% FBS: 100 µg/mL
  MIC values against MRSA 326: 50 µg/mL
[9]
  LDH release: 5%
[10]
  recovery of HEK cells: 90%

## b~RWQVLVASD
[11]
  detection of PSA compared with monoclonal antibody: can detect PSA to comparable levels as the antibody

## DMISYAGMDPPDMISYAGMD [B12, VEGFR2 peptide B12]
[12]
  ERK1/2 phosphorylation after EGF stimulation: do not inhibit ERK1/2 phosphorylation

## b~RVPIWSLGNR [Tango 2 Mut_1]
[13]
  binding to β-Gal on blot: still bind efficiently to β-Gal

## O Z RTMAWTVVRGSRTMAWIVVR (RTMAWTVVRGSRTMAWTVVR) [interferor 3]
[3]
  virus replication: less strong

## CN[C@H](CC(C)C)C(=O)N[C@H]1C(=O)N[C@@H](CC(N)=O)C(=O)N[C@H]2C(=O)N[C@H]3C(=O)N[C@H](C(=O)N[C@H](C(=O)O)c4cc(O)cc(O)c4-c4cc3ccc4O)[C@H](O)c3ccc(c(Cl)c3)Oc3cc2cc(c3O[C@@H]2O[C@H](CO)[C@@H](O)[C@H](O)[C@H]2O[C@H]2C[C@](C)(N)[C@H](O)[C@H](C)O2)Oc2ccc(cc2Cl)[C@H]1O [vancomycin, reference compound]
[14]
  fold elevation of the MIC: increased two-fold
[15]
  reduction of expansion of initial inoculum: 8.7 Log10 CFU/ml

## CO[C@H]1/C=C/O[C@@]2(C)Oc3c(C)c(O)c4c(O)c(c(/C=N/N5CCN(C)CC5)c(O)c4c3C2=O)NC(=O)/C(C)=C\C=C\[C@H](C)[C@H](O)[C@@H](C)[C@@H](O)[C@@H](C)[C@H](OC(C)=O)[C@@H]1C [rifampin, reference compound]
[14]
  fold elevation of the MIC: ≤ 512 fold

## b~RQWVLTAAR [PSA interferor peptide]
[11]
  detection of PSA compared with monoclonal antibody: can detect PSA to comparable levels as the antibody

## b~DVIIWSLGNR~b [Complimentary charge]
[13]; competitive PepBlot, 7% clinical serum in adjacent lane, 25 nM, 15 min
  specificity of binding to β-gal versus serum proteins: does not cross react with proteins in the serum

## b~RVIIWSLGNR [Tango 2]
[13]
  binding to β-Gal on blot: strong affinity to the β-Gal

## O Z RTTIMAAFRGSRTTIMAAFR [interferor 2]
[3]
  virus replication: less strong

## RIISAVVGRPPRIISAVVGR [A12]
[4]
  EGF signaling (phospho-ERK1/2): significantly and repeatedly reduced EGF signaling

## b~RVIPWSLGNR [Tango 2 Mut_2]
[13]
  binding to β-Gal on blot: still bind efficiently to β-Gal

## b~RLAVVLQR [Tango 1]
[13]
  binding to β-Gal on blot: weaker binding

## (His)6~RLAVVLQR [Tango 1 peptide]
[16]
  binding affinity with β-Gal observed in SPR: weak binding affinity
[2]
  co-aggregation kinetics with free β-Gal in solution: faster co-aggregation kinetics

## b~RPITVNPPFR [Off-Target]
[13]
  binding to β-Gal on blot: no interaction

## b~RQWVLTAARGSGSAPAARQWVLTAAR ({Biotin-Ttds}-APAARQWVLTAARGSGSAPAARQWVLTAAR) [tandem repeat PSA peptide]
[11]; 250 pM tandem repeat peptide
  detection of PSA (band signal): strong band signal

## CCOC(=O)C1=C[C@@H](OC(CC)CC)[C@H](NC(C)=O)[C@@H](N)C1 [Tamiflu, reference compound]
[3]; positive control, 1 μM or 10 nM
  virus replication: did not completely inhibit viral replication in one setup

## RWVSMLLRRGSRWVSMLLRR [Hit1]
[5]
  HD50 (concentration at which 50% of red blood cells are lysed): 25 to 50 µg/mL
[6]
  MIC values against Corynebacterium: 3 µg/mL
[7]
  MIC values against B.cereus ATCC: 6 µg/mL
[8]
  MIC: 3 µg/mL
  MIC in presence of 50% FBS: 25 µg/mL
  MIC values against MRSA 326: 6 µg/mL
